Patent publication EP4692090A1 (Shanghai Fosun Pharmaceutical (Group) Co., Ltd., priority 2023, dated 2024)
Like-named read-outs stand apart in the source and are kept apart here.

Columns and labels:
LoVo cells = assay: LoVo cell proliferation assay (CellTiter-Glo); type: cell-based; details: Homo sapiens, LoVo, 120 h, maximum concentration 10 µM, 9 concentrations
Procedure, shortened: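 LoVo cells, 2,000 per well, were treated after overnight attachment with 9-point 3-fold dilutions from 10 µM for 5 days at 37 °C. Viability was read by CellTiter-Glo luminescence. Inhibition % was taken relative to DMSO control, and IC50 came from the concentration–inhibition curve.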

ATR kinase = target: T1, ATR kinase (Homo sapiens, UniProt Q13535); assay: Inhibitory effect on ATR kinase activity (Caliper mobility shift, FAM-labeled RAD17 peptide substrate); type: biochemical
T1 construct: purchased Eurofins 14-953
Procedure, shortened: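 Caliper mobility-shift assay with 1 nM ATR, FAM-labeled RAD17 peptide […] and 5 mM ATP in HEPES pH 7.5 with 10 mM MnCl2, run 3 h at 28 °C and stopped with EDTA. Compounds were tested in 10-point 3-fold dilutions from 1 µM. IC50 was fitted from % inhibition of substrate conversion versus blank control.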

[1] = read-out: LoVo IC50 (nM), LoVo cells, 2,000 cells per well, 5 days incubation, CellTiter-Glo
[2] = read-out: ATR kinase IC50, 1 nM ATR kinase (Eurofins), 28°C for 3 hours, maximum concentration 1 µM, 10 concentrations
[3] = LoVo cells, 2,000 cells per well, 5 days incubation, CellTiter-Glo, read-out: LoVo IC50
[4] = 1 nM ATR kinase (Eurofins), 28°C for 3 hours, maximum concentration 1 µM, 10 concentrations, read-out: ATR kinase IC50

T1 sequence (Q13535 whole entry): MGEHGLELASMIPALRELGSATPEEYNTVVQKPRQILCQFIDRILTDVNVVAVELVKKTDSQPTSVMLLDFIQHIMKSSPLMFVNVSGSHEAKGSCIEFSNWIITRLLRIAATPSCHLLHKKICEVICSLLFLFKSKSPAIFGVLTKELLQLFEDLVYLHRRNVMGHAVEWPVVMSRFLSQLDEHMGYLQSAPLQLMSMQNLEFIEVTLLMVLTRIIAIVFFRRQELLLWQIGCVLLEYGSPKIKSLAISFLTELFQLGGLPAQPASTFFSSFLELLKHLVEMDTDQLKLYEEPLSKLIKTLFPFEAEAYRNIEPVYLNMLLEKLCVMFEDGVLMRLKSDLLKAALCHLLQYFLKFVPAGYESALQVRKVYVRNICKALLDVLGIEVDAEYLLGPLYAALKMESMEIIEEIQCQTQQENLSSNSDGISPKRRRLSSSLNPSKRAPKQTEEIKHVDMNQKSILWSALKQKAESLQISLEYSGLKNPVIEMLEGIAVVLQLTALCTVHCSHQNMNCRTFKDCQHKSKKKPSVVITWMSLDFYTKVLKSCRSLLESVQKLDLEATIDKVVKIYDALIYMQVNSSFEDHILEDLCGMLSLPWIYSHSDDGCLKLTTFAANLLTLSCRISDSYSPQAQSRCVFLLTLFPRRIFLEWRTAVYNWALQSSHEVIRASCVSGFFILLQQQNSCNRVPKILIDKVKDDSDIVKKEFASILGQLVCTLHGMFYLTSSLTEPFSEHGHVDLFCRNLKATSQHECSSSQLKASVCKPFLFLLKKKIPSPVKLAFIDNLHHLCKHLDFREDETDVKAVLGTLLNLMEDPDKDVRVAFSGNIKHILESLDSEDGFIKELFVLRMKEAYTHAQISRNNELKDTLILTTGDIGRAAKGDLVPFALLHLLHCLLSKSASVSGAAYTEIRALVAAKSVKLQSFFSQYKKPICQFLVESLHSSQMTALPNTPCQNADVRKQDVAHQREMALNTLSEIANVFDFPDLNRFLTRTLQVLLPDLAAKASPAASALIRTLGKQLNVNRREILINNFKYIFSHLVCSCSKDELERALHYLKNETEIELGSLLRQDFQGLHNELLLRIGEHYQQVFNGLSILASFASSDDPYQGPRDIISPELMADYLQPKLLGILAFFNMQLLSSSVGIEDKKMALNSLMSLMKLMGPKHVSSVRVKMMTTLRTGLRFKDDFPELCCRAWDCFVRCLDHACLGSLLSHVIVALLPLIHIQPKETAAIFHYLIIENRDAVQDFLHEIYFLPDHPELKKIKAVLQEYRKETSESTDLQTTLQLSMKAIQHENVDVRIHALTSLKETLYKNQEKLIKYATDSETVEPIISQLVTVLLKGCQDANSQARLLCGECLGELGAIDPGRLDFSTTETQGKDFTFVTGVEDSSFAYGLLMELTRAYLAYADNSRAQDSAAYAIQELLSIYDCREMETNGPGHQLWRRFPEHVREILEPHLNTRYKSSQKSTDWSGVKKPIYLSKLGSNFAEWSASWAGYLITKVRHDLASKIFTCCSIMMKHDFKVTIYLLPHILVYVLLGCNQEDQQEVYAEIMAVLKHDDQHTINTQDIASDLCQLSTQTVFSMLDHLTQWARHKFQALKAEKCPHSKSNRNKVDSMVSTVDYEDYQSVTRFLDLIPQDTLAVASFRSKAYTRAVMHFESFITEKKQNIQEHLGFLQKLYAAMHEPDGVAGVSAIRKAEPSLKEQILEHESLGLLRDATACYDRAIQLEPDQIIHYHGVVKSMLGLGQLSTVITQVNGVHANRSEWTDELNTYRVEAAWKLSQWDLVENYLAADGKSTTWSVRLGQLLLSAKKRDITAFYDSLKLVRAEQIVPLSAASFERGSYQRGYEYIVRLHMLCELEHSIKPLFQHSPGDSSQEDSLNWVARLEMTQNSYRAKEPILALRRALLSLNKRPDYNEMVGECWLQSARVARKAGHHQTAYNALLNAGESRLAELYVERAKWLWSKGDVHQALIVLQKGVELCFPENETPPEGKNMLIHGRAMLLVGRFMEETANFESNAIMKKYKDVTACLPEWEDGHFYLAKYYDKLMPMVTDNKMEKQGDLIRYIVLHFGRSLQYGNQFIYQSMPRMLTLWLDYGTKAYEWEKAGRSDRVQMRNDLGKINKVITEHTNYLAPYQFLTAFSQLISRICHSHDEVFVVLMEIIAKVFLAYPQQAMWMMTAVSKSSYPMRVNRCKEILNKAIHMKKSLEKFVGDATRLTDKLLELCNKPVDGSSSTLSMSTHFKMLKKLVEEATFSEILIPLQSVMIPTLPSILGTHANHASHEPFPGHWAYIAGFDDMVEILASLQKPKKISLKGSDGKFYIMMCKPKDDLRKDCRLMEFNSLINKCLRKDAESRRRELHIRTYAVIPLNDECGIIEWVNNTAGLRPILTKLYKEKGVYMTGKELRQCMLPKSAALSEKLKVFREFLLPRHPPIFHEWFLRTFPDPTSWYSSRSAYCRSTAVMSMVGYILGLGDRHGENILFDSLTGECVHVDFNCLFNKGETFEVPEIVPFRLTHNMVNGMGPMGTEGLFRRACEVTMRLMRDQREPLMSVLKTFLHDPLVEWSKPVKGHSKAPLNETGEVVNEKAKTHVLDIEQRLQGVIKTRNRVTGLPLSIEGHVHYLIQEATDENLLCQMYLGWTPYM
T1 sequence (Q8WXE1 whole entry partner): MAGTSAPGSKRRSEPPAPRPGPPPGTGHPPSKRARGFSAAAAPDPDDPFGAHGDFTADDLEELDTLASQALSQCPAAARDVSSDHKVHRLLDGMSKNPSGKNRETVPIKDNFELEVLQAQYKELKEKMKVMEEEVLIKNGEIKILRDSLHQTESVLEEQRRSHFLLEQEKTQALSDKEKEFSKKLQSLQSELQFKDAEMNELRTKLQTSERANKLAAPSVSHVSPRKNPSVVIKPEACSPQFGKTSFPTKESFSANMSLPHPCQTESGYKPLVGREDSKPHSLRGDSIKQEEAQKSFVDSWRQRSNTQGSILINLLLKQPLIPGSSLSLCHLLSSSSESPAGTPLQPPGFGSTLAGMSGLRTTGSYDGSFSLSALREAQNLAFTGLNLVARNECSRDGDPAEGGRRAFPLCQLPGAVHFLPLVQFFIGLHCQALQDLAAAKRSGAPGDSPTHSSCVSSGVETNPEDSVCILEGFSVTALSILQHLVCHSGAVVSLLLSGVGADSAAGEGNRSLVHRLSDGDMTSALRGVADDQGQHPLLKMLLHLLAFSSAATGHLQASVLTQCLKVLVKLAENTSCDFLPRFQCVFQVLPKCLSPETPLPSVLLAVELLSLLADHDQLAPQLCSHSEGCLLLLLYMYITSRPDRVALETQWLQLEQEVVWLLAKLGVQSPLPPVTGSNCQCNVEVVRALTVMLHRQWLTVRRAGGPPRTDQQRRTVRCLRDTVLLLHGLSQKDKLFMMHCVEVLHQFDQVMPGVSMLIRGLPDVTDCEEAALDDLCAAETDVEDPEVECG

Compound | IC50 (LoVo cells; [3]) [nM] | IC50 (ATR kinase; [4]) [nM] | IC50 (LoVo cells; [1]) [nM] | IC50 (ATR kinase; [2]) [nM]
CC(C(=O)N1CCc2nn(-c3cc[nH]n3)c3nc(N4CCOC[C@H]4C)cc(c23)C1)C(F)(F)F (stereo partly drawn) [Compound 16, 3,3,3-trifluoro-2-methyl-1-(4-((R)-3-methylmorpholinyl)-2-(1H-pyrazol-3-yl)-2,6,8,9-tetrahydro-7H-1,2,3,7-tetraazabenzo[cd]azulen-7-yl)propan-1-one] |  |  | 100 to 1000 | < 10
C[C@@H]1COCCN1c1cc2c3c(nn(-c4cc[nH]n4)c3n1)CCN(C(=O)C1(C(F)(F)F)CC1)C2 [Compound 18, (R)-(4-(3-methylmorpholinyl)-2-(1H-pyrazol-3-yl)-2,6,8,9-tetrahydro-7H-1,2,3,7-tetraazabenzo[cd]azulen-7-yl)(1-(trifluoromethyl)cyclopropyl)methanone] |  |  | < 100 | < 10
C#CC(C)N1CCc2nn(-c3cc[nH]n3)c3nc(N4CCOC[C@H]4C)cc(c23)C1 (stereo partly drawn) [Compound 21, (3R)-4-(7-(but-3-yn-2-yl)-2-(1H-pyrazol-3-yl)-6,7,8,9-tetrahydro-2H-1,2,3,7-tetraazabenzo[cd]azulen-4-yl)-3-methylmorpholine] | 100 to 1000 | 10 to 100 |  | 
C[C@@H]1COCCN1c1cc2c3c(nn(-c4cc[nH]n4)c3n1)CCN(S(C)(=O)=O)C2 [Compound 22, (R)-3-methyl-4-(7-(methylsulfonyl)-2-(1H-pyrazol-3-yl)-6,7,8,9-tetrahydro-2H-1,2,3,7-tetraazabenzo[cd]azulen-4-yl)morpholine] | < 100 | < 10 |  | 
C[C@@H]1COCCN1c1cc2c3c(nn(-c4cc[nH]n4)c3n1)CCN(S(=O)(=O)C1CC1)C2 [Compound 23, (R)-4-(7-(cyclopropylsulfonyl)-2-(1H-pyrazol-3-yl)-6,7,8,9-tetrahydro-2H-1,2,3,7-tetraazabenzo[cd]azulen-4-yl)-3-methylmorpholine] | 100 to 1000 | < 10 |  | 
C[C@@H]1COCCN1c1cc2c3c(nn(-c4cc[nH]n4)c3n1)CCN(S(=O)(=O)C(F)F)C2 [Compound 27, (R)-4-(7-((difluoromethyl)sulfonyl)-2-(1H-pyrazol-3-yl)-6,7,8,9-tetrahydro-2H-1,2,3,7-tetraazabenzo[cd]azulen-4-yl)-3-methylmorpholine] | 100 to 1000 | < 10 |  | 
C[C@@H]1COCCN1c1cc2c3c(nn(-c4cc[nH]n4)c3n1)CCN(S(C)(=N)=O)C2 (stereo partly drawn) [Compound 28, (3R)-3-methyl-4-(7-(S-methylsulfonylimino)-2-(1H-pyrazol-3-yl)-6,7,8,9-tetrahydro-2H-1,2,3,7-tetraazabenzo[cd]azulen-4-yl)morpholine] | > 1000 | 10 to 100 |  | 
CC1c2cc(N3CCOC[C@H]3C)nc3c2c(nn3-c2cc[nH]n2)CCN1S(=O)(=O)CCO (stereo partly drawn) [Compound 34] |  |  | 100 to 1000 | < 10
CC(=O)N1CCc2nn(-c3cc[nH]n3)c3nc(N4CCOC[C@H]4C)cc(c23)C1C (stereo partly drawn) [Compound 38, 1-(6-methyl-4-((R)-3-methylmorpholinyl)-2-(1H-pyrazol-3-yl)-2,6,8,9-tetrahydro-7H-1,2,3,7-tetraazabenzo[cd]azulen-7-yl)ethan-1-one] |  |  | 100 to 1000 | < 10
CC1NC(=O)Cn2nc(-c3cc[nH]n3)c3nc(N4CCOC[C@H]4C)cc1c32 (stereo partly drawn) [Compound 56, 6-methyl-4-((R)-3-methylmorpholinyl)-2-(1H-pyrazol-3-yl)-6,7-dihydro-1,3,7,9a-tetraazabenzo[cd]azulen-8(9H)-one] |  |  | > 1000 | 10 to 100
C[C@@H]1COCCN1c1cc2c3c(n1)c(-c1cc[nH]n1)nn3CCN2C [Compound 62, (R)-3-methyl-4-(5-methyl-1-(1H-pyrazol-3-yl)-4,5-dihydro-3H-2,2a,5,8-tetraazaacenaphthen-7-yl)morpholine] | > 1000 | 1000 to 2500 |  | 
C[C@@H]1COCCN1c1cc2c3c(nn(-c4cc[nH]n4)c3n1)CCC(=O)N2C1(C)CC1 [Compound 75, (R)-6-(1-methylcyclopropyl)-4-(3-methylmorpholino)-2-(1H-pyrazol-3-yl)-2,6,8,9-tetrahydro-7H-1,2,3,6-tetraazabenzo[cd]azulene-7-one] | < 100 | < 10 |  | 
C[C@@H]1COCCN1c1cc2c3c(nn(-c4cc[nH]n4)c3n1)CCC(=O)N2CC1(C)CC1 [Compound 77, (R)-6-((1-methylcyclopropyl)methyl)-4-(3-methylmorpholino)-2-(1H-pyrazol-3-yl)-2,6,8,9-tetrahydro-7H-1,2,3,6-tetraazabenzo[cd]azulene-7-one] | < 100 | < 10 |  | 
CC(C)N1C(=O)CCc2nn(-c3cc[nH]n3)c3nc(N4CCOC[C@H]4C)cc1c23 [Compound 78, (R)-6-isopropyl-4-(3-methylmorpholino)-2-(1H-pyrazol-3-yl)-2,6,8,9-tetrahydro-7H-1,2,3,6-tetraazabenzo[cd]azulene-7-one] |  | < 10 | < 100 | 
C[C@@H]1COCCN1c1cc2c3c(nn(-c4cc[nH]n4)c3n1)CCC(=O)N2C1CC(F)(F)C1 [Compound 79, (R)-6-(3,3-difluorocyclobutyl)-4-(3-methylmorpholinyl)-2-(1H-pyrazol-3-yl)-2,6,8,9-tetrahydro-7H-1,2,3,6-tetraazabenzo[cd]azulene-7-one] |  |  | 100 to 1000 | < 10
CC(C)N1C(=O)CCn2nc(-c3cc[nH]n3)c3nc(N4CCOC[C@H]4C)cc1c32 [Compound 81, (R)-6-isopropyl-4-(3-methylmorpholinyl)-2-(1H-pyrazol-3-yl)-8,9-dihydro-1,3,6,9a-tetraazabenzo[cd]azulene-7(6H)-one] |  |  | < 100 | < 10

The next lines start with results.

IC50 (LoVo cells; [3]) [nM] | IC50 (ATR kinase; [4]) [nM] | Compound | IC50 (LoVo cells; [1]) [nM] | IC50 (ATR kinase; [2]) [nM]
> 1000 | 10 to 100 | C[C@@H]1COCCN1c1cc2c3c(nn(-c4cc[nH]n4)c3n1)CCN(c1ccccc1)C2 [Compound 17, (R)-3-methyl-4-(7-phenyl-2-(1H-pyrazol-3-yl)-6,7,8,9-tetrahydro-2H-1,2,3,7-tetraazabenzo[cd]azulen-4-yl)morpholine] |  | 
100 to 1000 | < 10 | C[C@@H]1COCCN1c1cc2c3c(nn(-c4cc[nH]n4)c3n1)CCN(C(=O)C1CC1(F)F)C2 (stereo partly drawn) [Compound 19, (2,2-difluorocyclopropyl)(4-((R)-3-methylmorpholino)-2-(1H-pyrazol-3-yl)-2,6,8,9-tetrahydro-7H-1,2,3,7-tetraazabenzo[cd]azulene-7-yl)methanone] |  | 
100 to 1000 | < 10 | CC(C)S(=O)(=O)N1CCc2nn(-c3cc[nH]n3)c3nc(N4CCOC[C@H]4C)cc(c23)C1 [Compound 24, (R)-4-(7-(isopropylsulfonyl)-2-(1H-pyrazol-3-yl)-6,7,8,9-tetrahydro-2H-1,2,3,7-tetraazabenzo[cd]azulen-4-yl)-3-methylmorpholine] |  | 
< 100 | < 10 | C=CS(=O)(=O)N1CCc2nn(-c3cc[nH]n3)c3nc(N4CCOC[C@H]4C)cc(c23)C1C (stereo partly drawn) [Compound 50, (3R)-3-methyl-4-(6-methyl-2-(1H-pyrazol-3-yl)-7-(vinylsulfonyl)-6,7,8,9-tetrahydro-2H-1,2,3,7-tetraazabenzo[cd]azulen-4-yl)morpholine] |  | 
> 1000 | 10 to 100 | C[C@@H]1COCCN1c1cc2c3c(n1)c(-c1cc[nH]n1)nn3CCN(C1CC(F)(F)C1)C2 [Compound 52, (R)-4-(7-(3,3-difluorocyclobutyl)-2-(1H-pyrazol-3-yl)-6,7,8,9-tetrahydro-1,3,7,9a-tetraazabenzo[cd]azulen-4-yl)-3-methylmorpholine] |  | 
> 1000 | 10 to 100 | C[C@@H]1COCCN1c1cc2c3c(n1)c(-c1cc[nH]n1)nn3CCN(C(=O)C1CC(F)(F)C1)C2 [Compound 53, (R)-(3,3-difluorocyclobutyl)(4-(3-methylmorpholino)-2-(1H-pyrazol-3-yl)-8,9-dihydro-1,3,7,9a-tetraazabenzo[cd]azulene-7(6H)-yl)methanone] |  | 
100 to 1000 | 10 to 100 | C[C@@H]1COCCN1c1cc2c3c(n1)c(-c1cc[nH]n1)nn3CCN(C(=O)C1CC1)C2 [Compound 54, (R)-cyclopropyl(4-(3-methylmorpholino)-2-(1H-pyrazol-3-yl)-8,9-dihydro-1,3,7,9a-tetraazabenzo[cd]azulene-7(6H)-yl)methanone] |  | 
100 to 1000 | 10 to 100 | C[C@@H]1COCCN1c1cc2c3c(n1)c(-c1cc[nH]n1)nn3CCN(S(C)(=O)=O)C2 [Compound 55, (R)-3-methyl-4-(7-(methylsulfonyl)-2-(1H-pyrazol-3-yl)-6,7,8,9-tetrahydro-1,3,7,9a-tetraazabenzo[cd]azulen-4-yl)morpholine] |  | 
100 to 1000 | 10 to 100 | CC1c2cc(N3CCOC[C@H]3C)nc3c(-c4cc[nH]n4)nn(c23)CCN1C1COC1 (stereo partly drawn) [Compound 57, (3R)-3-methyl-4-(6-methyl-7-(oxetan-3-yl)-2-(1H-pyrazol-3-yl)-6,7,8,9-tetrahydro-1,3,7,9a-tetraazabenzo[cd]azulen-4-yl)morpholine] |  | 
100 to 1000 | 10 to 100 | CC1=NCCn2nc(-c3cc[nH]n3)c3nc(N4CCOC[C@H]4C)cc1c32 [Compound 58, (R)-3-methyl-4-(6-methyl-2-(1H-pyrazol-3-yl)-8,9-dihydro-1,3,7,9a-tetraazabenzo[cd]azulen-4-yl)morpholine] |  | 
100 to 1000 | 100 to 1000 | CC(C)N1CCn2nc(-c3cc[nH]n3)c3nc(N4CCOC[C@H]4C)cc1c32 [Compound 63, (R)-4-(5-isopropyl-1-(1H-pyrazol-3-yl)-4,5-dihydro-3H-2,2a,5,8-tetraazaacenaphthen-7-yl)-3-methylmorpholine] |  | 
